Assay results reported in paper PMC5736175, “Nicotinic alpha 7 receptor agonists EVP-6124 and BMS-933043, attenuate scopolamine-induced deficits in visuo-spatial paired associates learning” (PLoS ONE, 2017).
Values joined by “and” are separate entries in the source; they are usually repeats but may differ in a detail not shown here. Identical values can stand only once. “Also recorded” adds a separate entry of the source.

Experiments:
[1] = system: scopolamine-treated cynomolgus monkeys; assay: Scopolamine-induced impairment of vsPAL task performance, treatment + scopolamine; format: in vivo, cynomolgus monkeys (Macaca Fasicularis)
Description: Doses cited refer to the free base form of the compounds. […] All drugs were administered intramuscularly (i.m.) in a dosing volume of 0.1–0.2 ml/kg.
On days when compound testing occurred, approximately half the cohort received one dose and the remainder another dose of the same compound and therefore dose order was staggered between animals. With the exception of EVP-6124, all other compounds were tested in a single dose response study.
Cohen’s d values of >0.2, >0.5 and >0.8 are described using the conventions of small, medium, and large effects, respectively.

human nAChR α7 = system: human nAChR α7; design: method as in PMID 20959364, PMID 22085888; conditions: xenopus oocytes expressing human nAChR α7; cited from earlier work
[2] = Plasma pharmacokinetics in satellite animals (LC-MS/MS), 60 min after i.m. dose; conditions: for concentration at 60 min: cynomolgus monkey, plasma, intramuscular
Description: For all compounds, plasma pharmacokinetic studies were conducted in a separate cohort of cynomolgus monkeys (N = 2–3 subjects per dose) before beginning vsPAL testing to help guide dose selection. Blood samples were obtained with the animals awake and sitting in a primate chair.
Plasma concentrations of test compounds were determined using LC-MS/MS assays. In brief, 50 μL plasma and sample containing compounds was extracted by protein precipitation method with 150 μL acetonitrile containing an internal standard. A 5 μL sample of supernatant was injected into the LC-MS/MS system. Analytes were separated by reversed phase chromatography and detection of each analyte was achieved through selected reaction monitoring mode of mass spectrometry. Samples were quantified by calculated peak area ratio of analyte and internal standard against a calibration curve.

[3] = RG3487 0.3 mg/kg + scopolamine, individual animals, 0.3 mg/kg
[4] = RG3487 1.0 mg/kg + scopolamine, MEAN of 8 animals
[5] = RG3487 1.0 mg/kg + scopolamine, individual animals, 1 mg/kg
[6] = all doses of the study, for EVP-6124 study (1)
[7] = compound 0.03 mg/kg i.m. + Scopolamine
[8] = compound 0.10 mg/kg i.m. + Scopolamine
[9] = compound 0.30 mg/kg i.m. + Scopolamine
[10] = compound 1.00 mg/kg i.m. + Scopolamine

- nM total compound in plasma from satellite animals, 60 min ([2]; 0.10 mg/kg i.m., individual subjects): 74.4 nM
- nM total compound in plasma from satellite animals, 60 min ([2]; 0.30 mg/kg i.m., individual subjects): 132.0 nM
- nM total compound in plasma from satellite animals, 60 min ([2]; 1.00 mg/kg i.m., individual subjects): 305.0 nM
- concentration at 60 min ([2]; 0.1 mg/kg, nM total compound in plasma from satellite animals, 60 min, 0.10 mg/kg i.m., individual subjects): 42.9 nM
- concentration at 60 min ([2]; 0.1 mg/kg, nM total compound in plasma from satellite animals, 60 min, 0.10 mg/kg i.m., mean): 58.7 nM
- concentration at 60 min ([2]; 0.3 mg/kg, nM total compound in plasma from satellite animals, 60 min, 0.30 mg/kg i.m., individual subjects): 114 nM
- concentration at 60 min ([2]; 0.3 mg/kg, nM total compound in plasma from satellite animals, 60 min, 0.30 mg/kg i.m., mean): 123 nM
- concentration at 60 min ([2]; 1 mg/kg, nM total compound in plasma from satellite animals, 60 min, 1.00 mg/kg i.m., individual subjects): 595 nM
- concentration at 60 min ([2]; 1 mg/kg, nM total compound in plasma from satellite animals, 60 min, 1.00 mg/kg i.m., mean): 450 nM
- concentration at 60 min ([2]; exposures (predicted and measured), 0.03-1 mg/kg im dose range): 15 to 450 nM
- concentration at 60 min ([2]; mean plasma concentrations, satellite animals 60 min post-administration, 0.1-1.0 mg/kg dose range): 58.7 to 450 nM
SMILES: Cl.O=C(N[C@@H]1CN2CCC1CC2)c1n[nH]c2ccccc12 [RG3487, N-[(3S)-1-Azabicyclo[2.2.2]oct-3-yl]-1H-indazole-3-carboxamide HCl]
- Initial Correct, 4 Stimuli [1, 3]: 0.0% and 12.5% and 30.0% and 10.0% and 60.0% and 20.0%
- Initial Correct, Overall Mean % Correct [1, 3]: 43.3% and 37.5% and 63.3% and 76.7% and 20.0% and 46.7% and 60.0%
- Initial correct, 2 Stimuli [1, 3]: 100.0% and 70.0% and 90.0% and 40.0%
- % Completion [1, 4]: 78.8%
- Average Response Latency (Avg Rsp Lat) [1, 4]: 2200.2 ms
- Eventual Correct, 2 Stimuli [1, 4]: 100.0%
- Eventual Correct, 3 Stimuli [1, 4]: 85.0%
- Eventual Correct, 4 Stimuli [1, 4]: 54.2%
- Eventual Correct, Overall Mean % Correct [1, 4]: 79.7%
- Initial Correct, 3 Stimuli [1, 4]: 48.8%
- Initial Correct, 4 Stimuli [1, 4]: 22.2%
- Initial Correct, Overall Mean % Correct [1, 4]: 49.5%
- Initial correct, 2 Stimuli [1, 4]: 77.5%
- Eventual Correct, 2 Stimuli ([1]; RG3487 1.0 mg/kg + scopolamine, individual animals): 100.0%
- % Completion [1, 5]: 70.4% and 84.7% and 100.0% and 97.1% and 94.2% and 27.7% and 96.4% and 60.3%
- Average Response Latency (Avg Rsp Lat) [1, 5]: 2560.1 ms and 2640.7 ms and 1701.5 ms and 1446.7 ms and 1640.8 ms and 2013.9 ms and 2805.9 ms and 2791.8 ms
- Eventual Correct, 3 Stimuli [1, 5]: 100.0% and 70.0% and 80.0% and 90.0%
- Eventual Correct, 4 Stimuli [1, 5]: 80.0% and 33.3% and 50.0% and 70.0% and 16.7%
- Eventual Correct, Overall Mean % Correct [1, 5]: 93.3% and 77.8% and 73.3% and 83.3% and 90.0% and 62.2% and 71.1% and 86.7%
- Initial Correct, 3 Stimuli [1, 5]: 70.0% and 50.0% and 20.0% and 80.0% and 30.0%
- Initial Correct, 4 Stimuli [1, 5]: 30.0% and 11.1% and 10.0% and 50.0% and 0.0% and 16.7%
- Initial Correct, Overall Mean % Correct [1, 5]: 66.7% and 37.0% and 30.0% and 60.0% and 70.0% and 33.3% and 38.9%
- Initial correct, 2 Stimuli [1, 5]: 100.0% and 50.0% and 60.0% and 80.0% and 70.0%
- Holm-Sidak Post-Hoc, Treatment+Scopolamine differs from Vehicle+Scopolamine: percent correct on initial attempt, 3-stimuli ([1]; all doses of the study): n.s.
- Holm-Sidak Post-Hoc, Treatment+Scopolamine differs from Vehicle+Scopolamine: Choice Response Latency [1, 6]: n.s.
- Holm-Sidak Post-Hoc, Treatment+Scopolamine differs from Vehicle+Scopolamine: Percent Task Completed [1, 6]: n.s.
- Holm-Sidak Post-Hoc, Treatment+Scopolamine differs from Vehicle+Scopolamine: percent correct on initial attempt, 2-stimuli [1, 6]: n.s.
- Holm-Sidak Post-Hoc, Treatment+Scopolamine differs from Vehicle+Scopolamine: percent correct on initial attempt, 4 stimuli [1, 6]: n.s.
- Percent Correct on Initial Attempt (SEM), 2 stimuli [1, 7]: 83.8% (4.6%)
- Percent Correct on Initial Attempt (SEM), 3 stimuli [1, 7]: 43.8% (10.5%)
- Percent Correct on Initial Attempt (SEM), 4 stimuli [1, 7]: 25.0% (7.8%)
- Percent Correct on Initial Attempt (SEM), 2 stimuli [1, 8]: 90.0% (3.3%)
- Percent Correct on Initial Attempt (SEM), 3 stimuli [1, 8]: 47.5% (8.0%)
- Percent Correct on Initial Attempt (SEM), 4 stimuli [1, 8]: 13.8% (6.5%)
- Percent Correct on Initial Attempt (SEM), 2 stimuli [1, 9]: 83.8% (7.1%)
- Percent Correct on Initial Attempt (SEM), 3 stimuli [1, 9]: 42.5% (9.0%)
- Percent Correct on Initial Attempt (SEM), 4 stimuli [1, 9]: 20.4% (7.5%)
- Percent Correct on Initial Attempt (SEM), 2 stimuli [1, 10]: 77.5% (6.2%)
- Percent Correct on Initial Attempt (SEM), 3 stimuli [1, 10]: 48.8% (8.3%)
- Percent Correct on Initial Attempt (SEM), 4 stimuli [1, 10]: 22.2% (5.6%)
- effect on scopolamine-induced impairment of eventual accuracy ([1]; dose range 0.03-1.0 mg/kg i.m.): not efficacious; also recorded: failed to improve eventual accuracy; also recorded: no reversal
- maximal peak current, % of the acetylcholine response (human nAChR α7): 63%
